Results taken from article PMC6156138, “Combination of a Latency-Reversing Agent With a Smac Mimetic Minimizes Secondary HIV-1 Infection in vitro” (Frontiers in Microbiology, 2018).

Tests used:
Type in all cases: cell-based
[1] = test system: ACH-2 cells; assay: FACS analysis of active caspase-3 expression; settings: for percentage of active caspase-3 cells: ACH-2 cells, 24 h
Method: Intracellular HIV-1 p24 levels and active form of caspase-3 expression were determined as previously described ([Hattori et al., 2009]; [Duro et al., 2010]; [Matsuda et al., 2015]). In brief, ACH-2 cells or U1 cells (2.5 × 10^5 cells/mL) were fixed with 1% paraformaldehyde/phosphate buffered saline (PBS) for 20 min and were permeabilized with Flow Cytometry Perm Buffer (TONBO biosciences, San Diego, CA, United States). After incubation on ice for 5 min, the cells were stained with anti-HIV-1 p24 (24-4)-FITC mAb (Santa Cruz Biotechnology, Dallas, TX, United States) and/or with Alexa Fluor 647-conjugated anti-active caspase-3 mAb (C92-605) (BD Pharmingen, San Diego, CA, United States) for 30 min on ice. Cells were then analyzed on a BD FACSVerse flow cytometer (BD Biosciences, Franklin Lakes, NJ, United States). The corrected data were analyzed with FlowJo software (Tree Star, San Carlos, CA, United States).
FIGURE 3 (A,B) ACH-2 (A) and U1 cells (B) were treated with birinapant (50 nM), PEP005 (5 nM), birinapant plus PEP005, TNF-α (10 ng/ml), and intracellular expression of caspase-3 was examined after 24 h of incubation. The percentage of active caspase-3 cells was determined by comparison with unstimulated cells. (C) ACH-2 cells after 24 h of PEP005 (0∼50 nM) treatment with or without birinapant (50 nM) were separately analyzed in p24^+ and p24^- populations for caspase-3 expression.
FIGURE 4 (A) ACH-2 cells were exposed to birinapant (50 nM), PEP005 (5 nM), birinapant plus PEP005, TNF-α (10 ng/ml), or birinapant plus TNF-α treatment and were cultured for 5 days, and data (FACS analysis) were collected at days 1, 3, and 5. (B) Expression of active caspase-3 in p24^+/^- populations is shown. (C) Changes in the supernatant p24 antigen levels in the presence of drug(s) on days 1, 3, and 5. […]

[2] = test system: primary CD4+ T-cells from HIV-1-infected patients; assay: HIV-1 reactivation in primary CD4+ T-cells from HIV-1 patients (HIV-1 mRNA); settings: primary CD4+ T-cells from HIV-1-infected patients under cART, 24 h; PEP005 5 nM, birinapant 50 nM
Text: Peripheral blood samples were collected from HIV-1-infected patients who had been receiving combination antiretroviral therapy (cART) for at least 6 years. All subjects maintained lower viral load (<20 copies/ml) (except for occasional blips) during therapy. CD4^+ T-cell counts in peripheral blood samples ranged from 464–807 cells/mm^3 (average 601 cells/mm^3), and plasma viral loads were <41.3 copies/ml as measured by qPCR (Roche COBAS AmpliPrep/COBAS TaqMan HIV-1 Test version 2.0) at the time of study enrollment. Written informed consent was obtained from all the subjects. […] The total RNA was extracted, cDNA was synthesized, and quantitative real-time PCR analyses for studying the expression of intracellular HIV-1 RNA were carried out as shown above. The HIV RNA copies were calculated using a standard curve obtained from serially diluted HIV-1 plasmid, the normalized values [HIV RNA copies/input RNA (ng)] with a drug were compared with that without a drug, and the relative increase in HIV-1 RNA levels in the presence of a drug was determined.
FIGURE 5 (A) Changes in the HIV-1 mRNA expression on primary CD4^+ T-cells from HIV-1-infected patients in the presence of PEP005 and/or birinapant. […] Statistical significance was determined using Mann-Whitney U test, where P-value < 0.05 was considered to be significant.

[3] = test system: HIV-1 NL4-3; assay: Antiviral assay, HIV-1 NL4-3 in MT-4 cells; settings: for antiviral effect when combined with EFdA: HIV-1 NL4-3 in MT-4 cells; for replication of HIV-1 NL4-3 (supernatant p24): MT-4 cells, cultured for 12 days, single drug
Method: Antiviral assays using wild type HIV-1 (HIV-1 NL4-3) cells and MT-4 cells were conducted as previously described ([Maeda et al., 2014]; [Takamatsu et al., 2015]). To determine the cytotoxicity induced by LRAs and its related compounds, cells (5 × 10^5 cells/mL) were cultured in the presence or absence of LRA. After 24 h, cytotoxicity assays were performed using a Cytotoxicity LDH Assay Kit (Dojindo, Kumamoto, Japan) according to the manufacturer’s instructions. The number of living cells with the drug was measured and compared with those without the drug, and data are shown as percentage (%) of control.
Supplementary file Data_Sheet_1.PDF: FIGURE S1 The combined effect of an RT inhibitor (EFdA/MK-8591) ([Nakata et al., 2007]; [Kawamoto et al., 2008]; [Maeda et al., 2014]) and PKC activator (PEP005) on the replication of HIV-1 NL4-3 in MT-4 cells. MT-4 cells were infected with HIV-1 NL4-3 in the presence or absence of drug(s), cultured for 12 days, and the supernatant p24 levels were measured. Click here for additional data file.

[4] = birinapant 50 nM, PEP005 5 nM, TNF-α 10 ng/ml

Row | SMILES | percentage of active caspase-3 cells [1, 4] [%] | HIV-1 mRNA expression [2] | antiviral effect when combined with EFdA [3] | replication of HIV-1 NL4-3 (supernatant p24) [3] | Active caspase-3 ([1]; ACH-2, 24 h, p24 (+) cells, Birinapant (-), PEP005 50nM) [%] | Active caspase-3 ([1]; ACH-2, 24 h, p24 (-) cells, Birinapant (-), PEP005 50nM) [%] | Active caspase-3 ([1]; ACH-2, Day 5, p24 (+) cells, birinapant 50 nM, PEP005 5 nM, TNF-α 10 ng/ml) [%]
1 | CC[C@H](NC(=O)[C@H](C)NC)C(=O)N1C[C@@H](O)C[C@H]1Cc1c(-c2[nH]c3cc(F)ccc3c2C[C@@H]2C[C@H](O)CN2C(=O)[C@H](CC)NC(=O)[C@H](C)NC)[nH]c2cc(F)ccc12 [Birinapant] | 2.96 | failed to change the HIV-1 mRNA expression in most samples | no additive/synergistic antiviral effect | little to no effect on viral replication |  |  | 
2 | C/C=C(/C)C(=O)O[C@H]1C(C)=C[C@]23C(=O)[C@@H](C=C(CO)[C@@H](O)[C@]12O)[C@H]1[C@@H](C[C@H]3C)C1(C)C [PEP005, ingenol-3-angelate] | 9.98 | elevated the expression of HIV-1 mRNA | no additive/synergistic antiviral effect | little to no effect on viral replication | 13.0 | 44.7 | ~20.7
